Assay results taken from ChEMBL document CHEMBL4376804, “Review of Transient Receptor Potential Canonical (TRPC5) Channel Modulators and Diseases” (J Med Chem, 2019).

Tests used:
Assay type in all cases: cell-based
[1] = biological target: T1, Short transient receptor potential channel 4 (Mus musculus, UniProt Q9QUQ5); experiment: Inhibition of mouse TRPC4 beta expressed in HEK293 cells co-expressing mu-opioid receptor assessed as reduction in DAMGO-induced membrane potential by FMP-2 dye based assay
T1 sequence (Q9QUQ5 whole entry): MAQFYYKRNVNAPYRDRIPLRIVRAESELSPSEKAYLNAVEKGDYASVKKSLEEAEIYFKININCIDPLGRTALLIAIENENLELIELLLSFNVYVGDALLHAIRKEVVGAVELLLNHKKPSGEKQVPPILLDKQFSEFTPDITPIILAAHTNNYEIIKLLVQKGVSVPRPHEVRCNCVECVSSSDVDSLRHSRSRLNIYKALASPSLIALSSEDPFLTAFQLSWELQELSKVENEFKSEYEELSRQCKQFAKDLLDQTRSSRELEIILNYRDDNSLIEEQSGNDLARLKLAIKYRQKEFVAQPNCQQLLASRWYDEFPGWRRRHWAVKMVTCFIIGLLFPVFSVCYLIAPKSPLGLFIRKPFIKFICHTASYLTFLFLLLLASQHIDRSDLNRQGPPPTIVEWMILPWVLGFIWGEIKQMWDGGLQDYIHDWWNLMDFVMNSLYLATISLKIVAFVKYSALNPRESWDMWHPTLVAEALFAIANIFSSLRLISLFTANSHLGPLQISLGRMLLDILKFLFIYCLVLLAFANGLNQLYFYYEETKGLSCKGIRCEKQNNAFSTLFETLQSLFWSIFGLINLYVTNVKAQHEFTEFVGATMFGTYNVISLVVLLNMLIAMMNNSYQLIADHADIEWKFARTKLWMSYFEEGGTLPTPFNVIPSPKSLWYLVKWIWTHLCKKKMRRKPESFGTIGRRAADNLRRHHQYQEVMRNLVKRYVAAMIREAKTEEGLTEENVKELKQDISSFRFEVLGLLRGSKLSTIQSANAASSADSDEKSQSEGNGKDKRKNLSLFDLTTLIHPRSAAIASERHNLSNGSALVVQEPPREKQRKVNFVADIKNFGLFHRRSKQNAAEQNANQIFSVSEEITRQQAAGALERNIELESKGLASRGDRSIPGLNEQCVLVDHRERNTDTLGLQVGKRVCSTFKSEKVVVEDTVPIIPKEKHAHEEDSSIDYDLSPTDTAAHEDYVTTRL

[2] = biological target: T2, Short transient receptor potential channel 6 (Mus musculus, UniProt Q61143); experiment: Inhibition of mouse TRPC6 expressed in HEK293 cells co-expressing M5 receptor assessed as reduction in carbachol-induced membrane potential by FMP-2 dye based assay
T2 sequence (Q61143 whole entry): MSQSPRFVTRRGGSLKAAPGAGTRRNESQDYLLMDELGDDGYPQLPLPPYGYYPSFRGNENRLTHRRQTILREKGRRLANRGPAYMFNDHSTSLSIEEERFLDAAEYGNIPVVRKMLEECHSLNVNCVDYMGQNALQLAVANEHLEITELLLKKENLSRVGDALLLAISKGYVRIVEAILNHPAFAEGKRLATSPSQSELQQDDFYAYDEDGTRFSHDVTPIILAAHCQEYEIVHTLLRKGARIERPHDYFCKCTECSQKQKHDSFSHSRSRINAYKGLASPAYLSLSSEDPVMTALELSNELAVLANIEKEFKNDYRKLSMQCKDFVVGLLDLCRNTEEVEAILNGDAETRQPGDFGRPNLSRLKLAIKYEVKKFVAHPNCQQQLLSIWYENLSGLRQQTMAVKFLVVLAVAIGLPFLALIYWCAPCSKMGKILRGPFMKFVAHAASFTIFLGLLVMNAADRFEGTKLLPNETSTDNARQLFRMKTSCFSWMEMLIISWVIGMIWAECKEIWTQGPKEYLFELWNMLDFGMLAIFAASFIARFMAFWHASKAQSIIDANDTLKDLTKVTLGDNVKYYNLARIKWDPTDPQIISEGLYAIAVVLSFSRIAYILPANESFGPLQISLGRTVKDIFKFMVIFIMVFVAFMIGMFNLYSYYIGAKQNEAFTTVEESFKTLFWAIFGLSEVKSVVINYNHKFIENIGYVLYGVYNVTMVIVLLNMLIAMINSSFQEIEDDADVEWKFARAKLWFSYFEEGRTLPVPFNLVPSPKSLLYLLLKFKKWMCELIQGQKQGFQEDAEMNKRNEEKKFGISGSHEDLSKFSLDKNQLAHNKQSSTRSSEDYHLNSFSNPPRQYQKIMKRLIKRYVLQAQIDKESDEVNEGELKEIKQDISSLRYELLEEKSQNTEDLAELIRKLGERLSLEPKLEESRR

[3] = biological target: T3, Short transient receptor potential channel 3 (Homo sapiens, UniProt Q13507); experiment: Inhibition of human TRPC3 expressed in HEK293 cells assessed as reduction in carbachol-induced membrane potential by FMP-2 dye based assay
T3 sequence (Q13507 whole entry): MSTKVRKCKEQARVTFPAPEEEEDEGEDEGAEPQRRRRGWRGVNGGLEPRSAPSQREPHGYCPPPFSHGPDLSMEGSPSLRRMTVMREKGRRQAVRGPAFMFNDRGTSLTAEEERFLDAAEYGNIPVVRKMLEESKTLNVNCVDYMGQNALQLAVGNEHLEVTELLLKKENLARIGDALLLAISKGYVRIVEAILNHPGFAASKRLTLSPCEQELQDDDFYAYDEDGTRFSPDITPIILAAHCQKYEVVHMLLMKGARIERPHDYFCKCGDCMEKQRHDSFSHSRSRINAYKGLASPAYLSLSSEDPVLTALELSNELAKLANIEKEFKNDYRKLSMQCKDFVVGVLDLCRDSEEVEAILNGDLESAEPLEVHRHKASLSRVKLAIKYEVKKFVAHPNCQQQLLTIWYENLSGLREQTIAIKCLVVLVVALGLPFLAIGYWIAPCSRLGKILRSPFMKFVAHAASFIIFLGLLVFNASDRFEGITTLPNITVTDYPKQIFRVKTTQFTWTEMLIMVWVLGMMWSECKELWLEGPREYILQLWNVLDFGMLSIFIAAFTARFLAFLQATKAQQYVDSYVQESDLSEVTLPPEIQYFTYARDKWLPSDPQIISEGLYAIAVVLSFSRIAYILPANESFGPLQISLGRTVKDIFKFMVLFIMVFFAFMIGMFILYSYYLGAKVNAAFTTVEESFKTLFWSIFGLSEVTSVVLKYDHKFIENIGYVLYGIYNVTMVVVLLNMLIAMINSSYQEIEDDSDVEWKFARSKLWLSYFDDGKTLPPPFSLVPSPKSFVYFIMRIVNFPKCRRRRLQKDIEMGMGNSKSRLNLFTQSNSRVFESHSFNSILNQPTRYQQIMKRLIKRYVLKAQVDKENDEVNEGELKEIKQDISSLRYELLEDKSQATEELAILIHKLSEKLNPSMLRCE

| SMILES | IC50 [1] [µM] | IC50 [2] [µM] | IC50 [3] [µM] |
| --- | --- | --- | --- |
| c1ccc2[nH]c(N3CCCC3)nc2c1 | 5.5 | > 100 | > 100 |
| CC1CCCCN1c1nc2ccccc2[nH]1 (stereo not drawn) | 4.3 | > 100 | > 100 |
| c1ccc2[nH]c(NC34CC5CC(CC(C5)C3)C4)nc2c1 | 10.2 | > 100 | > 100 |
| CC1CCN(c2nc3ccccc3[nH]2)CC1 | 5.2 | 63.8 | 19.3 |
| c1ccc2[nH]c(N3CCCCC3)nc2c1 | 11 | > 100 | > 100 |
| CC1CCN(c2nc3cc(Cl)ccc3[nH]2)CC1 | 4.1 | 57.1 | 30.4 |
